Laboratory results: patent US9133157B2, “HIV protease inhibitors” (Merck Canada Inc., priority 2011, dated 2015)

Target: WT HIV-1 protease (Human immunodeficiency virus type 1 group M subtype B (isolate HXB2) (HIV-1), UniProt P04585)
Assay: Assay for inhibition of microbial expressed HIV protease (Procedure A, peptide substrate, HPLC fluorescence detection)
Type: biochemical
Details: WT HIV-1 protease 10 pM, substrate 400 micromolar, pH 5.5, 30 min preincubation, 1 hour at 30° C.; read-out: Enzyme inhibition IC50
Experimental: The inhibition of WT HIV-1 protease was studied using the reaction of the protease (expressed in Eschericia coli) with a peptide substrate [Val-Ser-Gln-Asn-(betanaphthyl)Ala-Pro-Ile-Val (SEQ ID NO:1)]. Compounds were tested using Procedure A. In Procedure A, the test compound was first preincubated with the enzyme in assay buffer (50 mM sodium acetate, pH 5.5, 100 mM NaCl, and 0.1% BSA) for 30 minutes at room temperature. Substrate was then added to 400 micromolar in a total volume of 80 microliters containing 10 picomolar HIV-1 protease and the reaction was incubated for 1 hour at 30° C. The reaction was quenched with the addition of 120 microliters of 10% phosphoric acid. The product formation was determined after separation of product and substrate on a Zorbax Eclipse XDB-C18 column (Agilent Technologies, Santa Clara, Calif.) connected to an Agilent 1100 high performance liquid chromatography system with fluorescence detection (excitation 270 nanometer and emission 330 nanometer).

Row | SMILES | IC50 [nM]
1 | COC(=O)N[C@H](C(=O)NCc1ccc(C(CO)N(Cc2cn[nH]c2)S(=O)(=O)c2ccc3scnc3c2)s1)C(c1ccccc1)c1ccccc1 (stereo partly shown) [Example 31] | 3.62
2 | COC(=O)N[C@H](C(=O)N[C@H](c1ccc([C@@H](CO)N(CC2CC(F)(F)C2)S(=O)(=O)c2ccc(N)cc2)s1)C(F)(F)F)C(c1ccccc1)c1ccccc1 [Example 84, N-[(1S)-1-{5-[(1R)-1-{[(4-aminophenyl)sulfonyl][(3,3-difluorocyclobutyl)methyl]amino}-2-hydroxyethyl]thiophen-2-yl}-2,2,2-trifluoroethyl]-Nα-(methoxycarbonyl)-β-phenyl-L-phenylalaninamide] | 0.75
3 | COC(=O)N[C@H](C(=O)NCc1ccc([C@@H](CO)N(CC2CC(F)(F)C2)S(=O)(=O)c2ccc3c(c2)C(O)CC3)s1)C(c1ccccc1)c1ccccc1 (stereo partly shown) [Example 38] | 13.6
4 | COC(=O)N[C@H](C(=O)N[C@H](c1ccc([C@@H](CO)N(CCC(C)(C)C)S(=O)(=O)c2ccc(N)cc2Cl)s1)C(F)(F)F)C(c1ccccc1)c1ccccc1 [Example 117, N-[(1S)-1-(5-{(1R)-1-[[(4-amino-2-chlorophenyl)sulfonyl](3,3-dimethylbutyl)amino]-2-hydroxyethyl}-2-thienyl)-2,2,2-trifluoroethyl]-Nα-(methoxycarbonyl)-β-phenyl-L-phenylalaninamide] | 0.47
5 | COC(=O)N[C@H](C(=O)N[C@H](c1ccc([C@@H](CO)N(CC(C)C)S(=O)(=O)c2ccc(N)cc2)s1)C1CC1)C(c1ccccc1)c1ccccc1 [Example 63, N-[(S)-{[4(1R)-1-{[(4-aminophenyl)sulfonyl](2-methylpropyl)amino}-2-hydroxyethyl]thiophen-2-yl}(cyclopropyl)methyl]-Nα-(methoxycarbonyl)-β-phenyl-L-phenylalaninamide] | 3.98
6 | COC(=O)N[C@H](C(=O)N[C@@H](C)c1ccc([C@@H](CO)N(C(C)C)S(=O)(=O)c2ccc(N)cc2)s1)C(c1ccccc1)c1ccccc1 [Example 75, N-[(1S)-1-{5-[(1R)-1-{[(4-aminophenyl)sulfonyl](propan-2-yl)amino}-2-hydroxyethyl]thiophen-2-yl}ethyl]-Nα-(methoxycarbonyl)-β-phenyl-L-phenylalaninamide] | 7.89
7 | COC(=O)N[C@H](C(=O)NCc1ccc([C@@H](CO)N(CC(C)C)S(=O)(=O)c2ccc(N)cc2)s1)C(c1ccccc1)c1ccccc1 [Example 10, N-({5-[(1R)-1-{[(4-aminophenyl)sulfonyl](2-methylpropyl)amino}-2-hydroxyethyl]thiophen-2-yl}methyl)-Nα-(methoxycarbonyl)-β-phenyl-L-phenylalaninamide] | 2.6
8 | COC(=O)N[C@H](C(=O)NCc1ncc(C(CO)N(CCC(C)C)S(=O)(=O)c2ccccc2)s1)C(c1ccccc1)c1ccccc1 (stereo partly drawn) [Example 3, N-[(5-{2-hydroxy-1-[(3-methylbutyl)(phenylsulfonyl)amino]ethyl}-1,3-thiazol-2-yl)methyl]-Nα-(methoxycarbonyl)-β-phenyl-L-phenylalaninamide] | 12.1
9 | COC(=O)N[C@H](C(=O)NC(C)(C)c1ccc(C(CO)N(CCC(C)C)S(=O)(=O)c2ccccc2)s1)C(c1ccccc1)c1ccccc1 (stereo partly shown) [Example 64] | 6.48
10 | COC(=O)N[C@H](C(=O)NCc1ccc([C@@H](CO)N(Cc2cc3cccnc3[nH]2)S(=O)(=O)c2ccc3scnc3c2)s1)C(c1ccccc1)c1ccccc1 [Example 35] | 11.9
11 | COC(=O)N[C@H](C(=O)N[C@H](c1ccc([C@@H](CO)N(CCC(C)(C)C)S(=O)(=O)c2cccc3[nH]ccc23)s1)C(F)(F)F)C(c1ccccc1)c1ccccc1 [Example 59, N-[(1S)-1-(5-{(1R)-1-[(3,3-dimethylbutyl)(1H-indol-4-ylsulfonyl)amino]-2-hydroxyethyl}thiophen-2-yl)-2,2,2-trifluoroethyl]-Nα-(methoxycarbonyl)-β-phenyl-L-phenylalaninamide] | 4.22
12 | COC(=O)N[C@H](C(=O)N[C@H](c1ccc([C@@H](CO)N(C(C)C)S(=O)(=O)c2ccc3[nH]ccc3c2)s1)C(F)(F)F)C(c1ccccc1)c1ccccc1 [Example 78, Nα-(methoxycarbonyl)-β-phenyl-N-[(1S)-2,2,2-trifluoro-1-(5-{(1R)-2-hydroxy-1-[(1H-indol-5-ylsulfonyl)(propan-2-yl)amino]ethyl}thiophen-2-yl)ethyl]-L-phenylalaninamide] | 66.1
13 | CC(C)CN(C(CO)c1ccc(CNC(=O)C(NC(=O)c2ccccc2)C(c2ccccc2)c2c[nH]c3ncccc23)s1)S(=O)(=O)c1ccc2ncsc2c1 (stereo not shown) [Example 126, N-[1[[5-[1-(1,3-benzothiazol-6-ylsulfonyl(isobutyl)amino)-2-hydroxy-ethyl]-2-thienyl]methylcarbamoyl]-2-phenyl-2-(1H-pyrrolo[2,3-b]pyridin-3-yl)ethyl]benzamide] | 4
14 | COC(=O)N[C@H](C(=O)N[C@H](c1ccc([C@@H](CO)N(CCC(C)(C)C)S(=O)(=O)c2cn3ccnc3cn2)s1)C(F)(F)F)C(c1ccccc1)c1ccccc1 [Example 99, N-[(1S)-1-(5-{(1R)-1-[(3,3-dimethylbutyl)(imidazo[1,2-a]pyrazin-6-ylsulfonyl)amino]-2-hydroxyethyl}thiophen-2-yl)-2,2,2-trifluoroethyl]-Nα-(methoxycarbonyl)-β-phenyl-L-phenylalaninamide] | 3.39
15 | COC(=O)N[C@H](C(=O)NCc1ccc(C(CO)N(CC2CC(F)(F)C2)S(=O)(=O)c2ccc3c(c2)CCC3O)s1)C(c1ccccc1)c1ccccc1 (stereo partly shown) [Example 36] | 3.65
16 | COC(=O)N[C@H](C(=O)N[C@H](c1ccc([C@@H](CO)N(CCC(C)(C)C)S(=O)(=O)c2ccn3ncnc3c2)s1)C(F)(F)F)C(c1ccccc1)c1ccccc1 [Example 120, N-[(1S)-1-(5-{(1R)-1-[(3,3-dimethylbutyl)([1,2,4]triazolo[1,5-a]pyridin-7-ylsulfonyl)amino]-2-hydroxyethyl}thiophen-2-yl)-2,2,2-trifluoroethyl]-Nalpha-(methoxycarbonyl)-beta-phenyl-L-phenylalaninamide] | 3
17 | COC(=O)N[C@H](C(=O)N[C@H](c1ccc([C@@H](CO)N(CCc2ccccc2)S(=O)(=O)c2ccc(N)cc2)s1)C(F)(F)F)C(c1ccccc1)c1ccccc1 [Example 89, N-[(1S)-1-{5-[(1R)-1-{[(4-aminophenyl)sulfonyl](2-phenylethyl)amino}-2-hydroxyethyl]thiophen-2-yl}-2,2,2-trifluoroethyl]-Nα-(methoxycarbonyl)-β-phenyl-L-phenylalaninamide] | 2.6
18 | COC(=O)N[C@H](C(=O)N[C@H](c1ccc([C@@H](CO)N(C(C)C)S(=O)(=O)c2ccc(N)c(F)c2)s1)C(F)(F)F)C(c1ccccc1)c1ccccc1 [Example 80, N-[(1S)-1-{5-[(1R)-1-{[(4-amino-3-fluorophenyl)sulfonyl](propan-2-yl)amino}-2-hydroxyethyl]thiophen-2-yl}-2,2,2-trifluoroethyl]-Nα-(methoxycarbonyl)-β-phenyl-L-phenylalaninamide] | 30.5
19 | COC(=O)N[C@H](C(=O)N[C@H](c1ccc([C@@H](CO)N(CCC(C)(C)C)S(=O)(=O)c2ccc3nccn3c2)s1)C(F)(F)F)C(c1ccccc1)c1ccccc1 [Example 71, N-[(1S)-1-(5-{(1R)-1-[(3,3-dimethylbutyl)(imidazo[1,2-a]pyridin-6-ylsulfonyl)amino]-2-hydroxyethyl}thiophen-2-yl)-2,2,2-trifluoroethyl]-Nα-(methoxycarbonyl)-β-phenyl-L-phenylalaninamide] | 6.64
